# Data as given in US20070111251A1, “Chemical address tags” (priority 2003, published 2007).
# How the values were obtained:
# [1] = test system: mitochondria; assay: QSLR factorial logistic regression of mitochondrial localization (affinity coefficients, cross-validated prediction); design: species or system human; details: for αi^mito: influence of A group on mitochondrial localization, greater = stronger; for estimated A group affinity coefficient ai: mitochondrial affinity, ±5 for groups always or never mitochondrial
# Excerpt: The first column and first row contain the A group and B group labels. The second column and second row contain the estimated A group and B group affinity coefficients (ai and bj respectively). The interior of the table contains the value sij=ai+bj for each compound (where positive values of sij indicate predicted localization to mitochondria, and negative values of sij indicate predicted localization to a non-mitochondrial compartment). The subscript m indicates experimentally determined mitochondrial localization. The subscript o indicates experimentally determined non-mitochondrial localization. The darkened boxes indicate correctly predicted mitochondrial localizations under cross-validation.
# Based on this matrix, factorial logistic regression (See, A. Agresti, Categorical Data Analysis, Wiley [2002]) was used to calculate mitochondrial affinity coefficients (ai and bj) for each A and B moiety. (Table 1). Since it is not necessary to observe all possible pairings between A and B building blocks to estimate the affinity coefficients, the QSLR approach can predict localization of unmeasured styryl molecules based on a minimal set of experimentally-determined localizations (see Methods). The methods of the present invention allow assessment of predictivity using the cross-validation technique by holding out one compound and fitting the affinity coefficients using the remaining compounds, predictivity can be assessed by comparing the actual localization of the held-out compound to its predicted localization. Repeating this for every measured compound in the library yields an error rate for the procedure.
# Briefly, this technique assigns quantitative scores to each A group (αi^mito) and to each B group (βj^mito), in such a way that αi^mito+βj^mito is positive for compounds with mitochondrial localization, and is negative for compounds lacking mitochondrial localization. […] In additional embodiments, same analysis can be applied to organelles other than mitochondria, provided there are a sufficient number of localizations to specific non-mitochondrial organelles in the combinatorial library of interest for reliable statistical calculations.
# In certain embodiments, the predictive performance of the above method was assessed using a cross-validation approach by calculating the proportion of all compounds that are correctly predicted. For cross-validation, each styryl product was set aside in sequence, and the factorial logistic model was fit to the remaining data. Then the resulting A and B scores for the held-out compound were summed. If the sum was positive, the held-out compound was predicted to be mitochondrial, while if the sum was negative, the held-out compound was predicted to be non-mitochondrial. […] The baseline performance of the method scored 104 correct out of 145, or 72%. This number is highly statistically significant compared to random guessing (p-value ˜10^−7). Thus, across the entire library, A and B moieties appear to contribute to localization in an independent, additive fashion.
# In some embodiments, subcellular localization data were converted to binary (0/1) values by assigning a value Gij=1 if compound i,j localized to mitochondria (even if it localized to other […] as well), and assigning Gij=0 if compound i,j localized exclusively to any non-mitochondrial cellular structure. Compounds with no localization were omitted from this part of the analysis. The αi and βj coefficients for A or B groups that are always observed to localize to mitochondria, or that never localize to mitochondria, were set to +/−5, respectively. The binary localization data were analyzed using factorial logistic regression. […]
# [2] = Additive decomposition of peak excitation and emission wavelengths (model coefficients of A and B groups); details: for αi^em: influence of A group on peak emission wavelength; for αi^em / αi^ex: A group 1 as baseline; for αi^ex: influence of A group on peak excitation wavelength
# Excerpt: The chemical structure of the styryl library is illustrated in FIG. 3. […] Initial analysis focused on measurements of peak emission and excitation wavelength obtained for all styryl products showing a single, localized peak (there were 256 such compounds for emission wavelength, and 193 compounds for excitation wavelength). […] The wavelength for the styryl compound formed by joining A group i with B group j is denoted as λij (or more specifically, λij^ex for excitation wavelength and λij^em for emission wavelength). The additive model λij=ai+βj+εij was fit to the data using least squares yielding parameters αi^ex, αi^em, βj^ex, and βj^em that quantify the influence of each A and B group on the spectrum of the styryl product. […] (FIGS. 8A-8B). […] The predictions were made ignoring interactions between the two functional moieties in the styryl compound. The predicted values were obtained without bias, by holding out the data point to be predicted when training the model.
# In preferred embodiments, using the cross-validation approach disclosed herein, each compound was held out in sequence, the model was trained using the remaining compounds, then the wavelength value for the held-out compound was predicted based on the resulting fitted model. This process produced correlations between measured and predicted values of ρ^em=0.78 (emission) and ρ^ex=0.69 (excitation).
# Based on this analysis, the contribution of the A and B functional groups to the fluorescence of the styryl product is quantified using the fitted coefficients αi^ex, βj^ex, […], and βj^em. Since these coefficients are on a scale without origin, in some embodiments, the invention uses the first A group and B group as a baseline, so […], β1^ex=0, and so on. Table 3 contains the model coefficients of all A and B groups for peak excitation and emission wavelength.
# Greater values of αi^ex, αi^em, βj^ex, and βj^em indicate greater peak wavelength. Greater values of αi^mito and […] indicate stronger mitochondrial localization. A groups 40 and 41 were not screened for localization. A groups 2, 29, and 33 only formed fluorescent products with a single B group, so were not included in the spectral analysis.
# In some embodiments, the wavelength values for peak excitation and emission were fit to the additive model λij=αi+βj+εij, where εij denotes error that is made as small as possible in the fitting process. Using least squares to minimize the function [formula] over all compounds having experimental data yields coefficient estimates αi for each A group and βj for each B group. One set of coefficient estimates is obtained for the excitation values and another set is obtained for the emission values. To predict the wavelength of a new compound formed from A and B groups i* and j* the sum αi*+βj* is used.
# In some embodiments, for both the spectral and localization analysis, cross-validation was used to obtain unbiased estimates of the prediction performance. Each compound was held out in sequence, and the coefficients αi and βj were fit to the remaining compounds. These values were then used to form a prediction for the held out compound, then the predicted and experimental values were compared to obtain a measure of the accuracy of prediction. Since the wavelength values are on a continuous scale, the predicted values were compared to the experimental values using Pearson correlation coefficients. The localization values are dichotomous, so the proportion of matching predictions was used to compare predicted and experimental localization values.
SMILES,αi^em [2],αi^ex [2],influence of group on peak wavelength [2],αi^mito [1],estimated A group affinity coefficient ai [1],influence of A group on mitochondrial localization [1]
Cc1ccccc1C=O [A group 7],38.5 nm,−44.1 nm,,5.0,5.0,
Cc1ccc(C=O)cc1 [A group 8],38.5 nm,10.9 nm,,5.0,5.0,
COc1ccccc1C=O [A group 9],−17.6 nm,−36.7 nm,,5.0,5.0,
COc1ccc(C=O)cc1 [A group 10],−23.7 nm,8.1 nm,,1.3,1.3,
COc1ccc(C=O)cc1OC [A group 11],−26.7 nm,−14.3 nm,,5.0,5.0,
O=Cc1ccc(OCc2ccccc2)c(OCc2ccccc2)c1 [A group 12],−22.7 nm,−36.7 nm,,−3.3,−3.3,
COc1cc(C=O)cc(OC)c1OC [A group 13],0.2 nm,−44.2 nm,,5.0,5.0,
COc1ccc(C=O)c2ccccc12 [A group 14],0.3 nm,−1.6 nm,,−1.2,−1.2,
COc1ccc(C=O)cc1O [A group 15],−33.1 nm,−46.9 nm,,−0.6,−0.6,
O=Cc1ccc(O)cc1 [A group 16],−24.8 nm,−36.3 nm,,−1.9,−1.9,
O=Cc1ccc(-c2ccccc2)cc1 [A group 17],−46.6 nm,−14.3 nm,bluer,−5.0,−5.0,mitochondrial repulsion
CC(=O)Nc1ccc(C=O)cc1 [A group 18],51.2 nm,−24.3 nm,strongly contribute towards the red end of the spectrum,0.8,0.8,
CN(C)c1ccc(C=O)cc1 [A group 19],49.6 nm,26.0 nm,strongly contribute towards the red end of the spectrum,−0.2,−0.2,
CN(C)c1ccc(C=O)c2ccccc12 [A group 27],72.0 nm,11.1 nm,strongly contribute towards the red end of the spectrum,−0.3,−0.3,
O=Cc1cccc2ccccc12 [A group 32],−15.0 nm,−36.1 nm,,5.0,5.0,
O=CC=Cc1ccccc1 [A group 35],−8.3 nm,0.0 nm,,−1.8,−1.8,

# The next lines start with results.
αi^em [2],αi^ex [2],influence of group on peak wavelength [2],SMILES,αi^mito [1],estimated A group affinity coefficient ai [1],influence of A group on mitochondrial localization [1]
44.5 nm,6.5 nm,the far red shift is not observed,O=Cc1ccccc1[N+](=O)[O-] [A group 20],−2.7,−2.7,
21.6 nm,−68.0 nm,the far red shift is not observed,O=Cc1cccc([N+](=O)[O-])c1 [A group 21],0.8,0.8,
−10.3 nm,−52.8 nm,the far red shift is not observed,O=Cc1ccc([N+](=O)[O-])cc1 [A group 22],5.0,5.0,
−10.3 nm,6.1 nm,,COc1ccc2ccccc2c1C=O [A group 23],−5.0,−5.0,
−24.2 nm,−7.2 nm,,O=Cc1c[nH]c2ccccc12 [A group 24],−1.7,−1.7,
44.9 nm,2.4 nm,,O=Cc1ccc2c(c1)Cc1ccccc1-2 [A group 28],−5.0,−5.0,
−8.0 nm,,,O=Cc1ccccc1F [A group 29],5.0,5.0,
50.1 nm,7.4 nm,redder,O=Cc1ccc(F)cc1 [A group 30],5.0,5.0,mitochondrial attraction
6.9 nm,−22.4 nm,,O=Cc1c(F)c(F)c(F)c(F)c1F [A group 31],5.0,5.0,
−26.5 nm,,bluer,O=Cc1ccc2ccccc2c1 [A group 33],5.0,5.0,mitochondrial attraction
58.8 nm,14.1 nm,redder,O=Cc1c2ccccc2cc2ccccc12 [A group 34],−5.0,5.0,mitochondrial repulsion
3.8 nm,−25.3 nm,the far red shift is not observed,O=CC=Cc1ccccc1[N+](=O)[O-] [A group 36],5.0,5.0,
